Laboratory results taken from patent publication US20080194556A1, “Quinazolines and Their Use as Aurora Kinase Inhibitors” (ASTRAZENECA AB, priority 2005, published 2008).

Columns and labels:
[1] = test system: SW620 human colon tumour cells; assay: In vitro cell phenotype and substrate phosphorylation assay (phosphohistone H3 levels); type: cell-based; conditions: SW-620, 24 hours of treatment, read-out: IC50 (inhibition of phosphohistone H3 levels)
Procedure: (c) In Vitro Cell Phenotype and Substrate Phosphorylation Assay
This assay is used to determine the cellular effects of compounds on SW620 human colon tumour cells in vitro. Compounds typically cause inhibition of levels of phosphohistone H3 and an increase in the nuclear area of the cells.
10^4 SW620 cells per well were plated in 100 μl DMEM media (containing 10% FCS and 1% glutamine) (DMEM is Dulbecco's Modified Eagle's Medium (Sigma D6546)) in costar 96 well plates and left overnight at 37° C. and 5% CO2 to adhere. The cells were then dosed with compound diluted in media (50 μl is added to each well to give 0.00015μ-1 μM concentrations of compound) and after 24 hours of treatment with compound, the cells were fixed.
The cells were first examined using a light microscope and any cellular changes in morphology were noted. 100 μl of 3.7% formaldehyde was then added to each well, and the plate was left for at least 30 minutes at room temperature. Decanting and tapping the plate on a paper towel removed the fixative and plates were then washed once in PBS (Dulbecco's Phosphate Buffered Saline (Sigma D8537)) using an automated plate washer. 100 μl PBS and 0.5% triton X-100 was added and the plates were put on a shaker for 5 minutes. The plates were washed in 100 μl PBS and solution tipped off. 50 μl of primary antibody, 1:500 rabbit anti-phosphohistone H3 in PBS 1% BSA (bovine serum albumin) and 0.5% tween, was added. Anti-phosphohistone H3 rabbit polyclonal 06-750 was purchased from Upstate Biotechnology. The plates were left 1 hour at room temperature on a shaker.
The next day, the antibody was tipped off and the plates were washed twice with PBS. In an unlit area, 50 μl of secondary antibody, 1:10,000 Hoechst and 1:200 Alexa Fluor 488 goat anti rabbit IgGA (cat no. 11008 molecular probes) in PBS 1% BSA, 0.5% tween was added. The plates were wrapped in tin foil and shaken for 1 hour at room temperature. The antibody was tipped off and plates were washed twice with PBS. […] 100 μl PBS was added to each well and the plates were sealed ready to analyse. […]

aurora B-INCENP enzyme = target: T1, aurora B-INCENP enzyme (Homo sapiens, UniProt Q96GD4); assay: In vitro aurora B kinase inhibition test; type: biochemical; conditions: 33P incorporation into peptide substrate, 60 minutes at room temperature, read-out: IC50 (50% inhibition of enzyme activity), aurora B kinase
T1 construct: 6-histidine; purchased Upstate
T1 sequence (Q96GD4 whole entry): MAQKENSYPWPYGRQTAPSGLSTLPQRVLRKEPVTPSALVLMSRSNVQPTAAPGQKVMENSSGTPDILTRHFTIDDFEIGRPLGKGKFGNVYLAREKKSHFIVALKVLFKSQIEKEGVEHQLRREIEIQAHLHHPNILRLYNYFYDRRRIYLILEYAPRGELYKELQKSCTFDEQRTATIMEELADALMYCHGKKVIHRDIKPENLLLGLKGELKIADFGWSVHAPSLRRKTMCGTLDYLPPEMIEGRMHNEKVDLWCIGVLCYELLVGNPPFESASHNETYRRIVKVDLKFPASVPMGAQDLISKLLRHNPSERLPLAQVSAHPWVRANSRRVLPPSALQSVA
T1 sequence (Q9NQS7 826-918 partner): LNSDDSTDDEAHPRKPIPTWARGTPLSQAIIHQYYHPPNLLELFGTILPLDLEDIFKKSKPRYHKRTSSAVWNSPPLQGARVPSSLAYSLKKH
Description: (b) In Vitro Aurora B Kinase Inhibition Test
This assay determines the ability of a test compound to inhibit serine-threonine kinase activity. DNA encoding aurora B may be obtained by total gene synthesis or by cloning. This DNA may then be expressed in a suitable expression system to obtain polypeptide with serine-threonine kinase activity. In the case of aurora B, the coding sequence was isolated from cDNA by polymerase chain reaction (PCR) and cloned into the pFastBac system in a manner similar to that described above for aurora A (i.e. to direct expression of a 6-histidine tagged aurora B protein).
For the large scale expression of aurora B kinase activity, Sf21 insect cells were grown at 28° C. in TC100 medium supplemented with 10% foetal calf serum (Viralex) and 0.2% F68 Pluronic (Sigma) on a Wheaton roller rig at 3 r.p.m. When the cell density reached 1.2×10^6 cells ml^−1 they were infected with plaque-pure aurora B recombinant virus at a multiplicity of infection of 1 and harvested 48 hours later. All subsequent purification steps were performed at 4° C. Frozen insect cell pellets containing a total of 2.0×10^8 cells were thawed and diluted with lysis buffer (50 mM HEPES (N-[2-hydroxyethyl]piperazine-N′-[2-ethanesulphonic acid]) pH7.5 at 4° C., 1 mM Na3VO4, 1 mM PMSF (phenylmethylsulphonyl fluoride), 1 mM dithiothreitol, 1 μg/ml aprotinin, 1 μg/ml pepstatin, 1 μg/ml leupeptin), using 1.0 ml per 2×10^7 cells. Lysis was achieved using a sonication homogeniser, following which the lysate was centrifuged at 41,000 g for 35 minutes. Aspirated supernatant was pumped onto a 5 mm diameter chromatography column containing 1.0 ml CM sepharose Fast Flow (Amersham Pharmacia Biotech) which had been equilibrated in lysis buffer. A baseline level of UV absorbance for the eluent was reached after washing the column with 12 ml of lysis buffer followed by 7 ml of wash buffer (50 mM HEPES pH7.4 at 4° C., 1 mM dithiothreitol). […]

[2] = test system: drug-resistant MCF7-ADR human breast tumour cells; assay: In vitro drug-resistant cell phenotype and substrate phosphorylation assay (phosphohistone H3 levels); type: cell-based; conditions: NCI/ADR-RES, 24 hours of treatment, read-out: IC50 (inhibition of phosphohistone H3 levels)
Procedure: (d) In Vitro Drug-Resistant Cell Phenotype and Substrate Phosphorylation Assay.
This assay is used to determine the cellular effects of compounds on drug-resistant MCF7-ADR human breast tumour cells in vitro.
Compounds typically cause inhibition of levels of phosphohistoneH3 and an increase in the nuclear area of treated cells.
0.8×10^4 MCF7-ADR cells per well were plated in 100 μl DMEM media (containing 10% FCS (foetal calf serum) and 1% glutamine) in costar 96 well plates and left overnight at 37° C. and 5% CO2 to adhere.
All other procedures are identical to those for the above assay using SW620 cells.
The compounds of the invention generally have EC50 values for inhibition of phosphohistone H3 levels of 0.5 nM to 0.1 μM.

Row | IC50 [1] [nM] | IC50 (aurora B-INCENP enzyme) [nM] | IC50 [2] [nM] | Compound
1 | 2 | 0.1 | 4 | CCOc1cc(OC[C@H]2COCCN2)c2c(Nc3cnn(CC(=O)Nc4cccc(F)c4F)c3)ncnc2c1 [Compound 3, N-(2,3-difluorophenyl)-2-[4-({7-ethoxy-5-[(3R)-morpholin-3-ylmethoxy]quinazolin-4-yl}amino)-1H-pyrazol-1-yl]acetamide]
2 | 2 | 0.5 | 20 | CCOc1cc(OC[C@H]2CCCN2)c2c(Nc3cnn(CC(=O)Nc4cccc(F)c4F)c3)ncnc2c1 [Compound 2, N-(2,3-difluorophenyl)-2-[4-({7-ethoxy-5-[(2R)-pyrrolidin-2-ylmethoxy]quinazolin-4-yl}amino)-1H-pyrazol-1-yl]acetamide]
3 | 5.5 | 0.5 | 17 | CCOc1cc(OC[C@H]2CCCN2C)c2c(Nc3cnn(CC(=O)Nc4cccc(F)c4F)c3)ncnc2c1 [Compound 1, N-(2,3-difluorophenyl)-2-{4-[(7-ethoxy-5-{[(2R)-1-methylpyrrolidin-2-yl]methoxy}quinazolin-4-yl)amino]-1H-pyrazol-1-yl}acetamide]
